In patent US20240217968A1, “PHARMACEUTICAL COMPOUND” (DUKE STREET BIO LIMITED, priority 2021, published 2024):

target: T1, recombinant human Flag-tagged PARP7 (amino acids 456-657) (Homo sapiens, UniProt Q7Z3E1); assay: PARP7 biochemical DELFIA assay (auto-MARylation); details: DELFIA readout, IC50 class
T1 construct: recombinant human Flag-tagged PARP7 (amino acids 456-657)
T1 sequence (Q7Z3E1 456-657): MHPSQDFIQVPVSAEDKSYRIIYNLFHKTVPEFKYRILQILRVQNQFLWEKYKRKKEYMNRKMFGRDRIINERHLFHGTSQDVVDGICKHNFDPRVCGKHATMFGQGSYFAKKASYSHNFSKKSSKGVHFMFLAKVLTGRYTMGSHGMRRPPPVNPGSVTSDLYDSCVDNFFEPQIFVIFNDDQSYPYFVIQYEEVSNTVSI
In short: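 Readout is DELFIA time-resolved Eu fluorescence (Ex337 nm, Em620 nm) of biotin-ADP-ribose on immobilised Flag-tagged PARP7 456-657. Enzyme (12.5-37.5 nM as added) sat 30 min with compound before biotin-NAD+ (15 μM solution, pH 7.5 HEPES buffer) started 2-3 h room-temperature self-modification, stopped with excess NAD+.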

Structure (SMILES) | IC50
CCc1cc2c(=O)[nH]ncc2n1CCOCCC(=O)N1CCN(c2ncc(C(F)(F)F)cn2)CC1 [Compound 59] | 100 to 1000 nM
O=C(CCOCCn1c(C(F)(F)F)cc2c(=O)[nH]ncc21)N1CCN(c2ncc(C(F)(F)F)cn2)CC1 [Compound 60, 1-(2-(3-oxo-3-(4-(5-(trifluoromethyl)pyrimidin-2-yl)piperazin-1-yl)propoxy)ethyl)-2-(trifluoromethyl)-1,5-dihydro-4H-pyrrolo[2,3-d]pyridazin-4-one] | ≤ 100 nM
O=C(CCNCCN1CCCc2c1cn[nH]c2=O)N1CCN(c2ncc(C(F)(F)F)cn2)CC1 [Compound 61] | 100 to 1000 nM
CC(COCCC(=O)N1CCN(c2ccc(C#N)cn2)CC1)N1CCCc2c1cn[nH]c2=O (stereo not shown) [Compound 62] | 100 to 1000 nM
CC(COCCC(=O)N1CCN(c2ncc(C(F)(F)F)cn2)CC1)N1CCCc2c1cn[nH]c2=O (stereo not shown) [Compound 63] | ≤ 100 nM
N#Cc1ccc(N2CCN(C(=O)c3cccc(Cc4cccc5c4C(=O)NC5=O)c3)CC2)nc1 [Compound 66] | 100 to 1000 nM
N#Cc1ccc(N2CCN(C(=O)CCOCCc3cccc4c(=O)[nH]ncc34)CC2)nc1 [Compound 67] | ≤ 100 nM
N#Cc1ccc(N2CCN(C(=O)CCOCCc3cc(C(F)(F)F)cc4c(=O)[nH]ncc34)CC2)nc1 [Compound 68] | 100 to 1000 nM
O=C(CCOCCc1cc(C(F)(F)F)cc2c(=O)[nH]ncc12)N1CCN(c2ncc(C(F)(F)F)cn2)CC1 [Compound 69] | 100 to 1000 nM
CC(COCCC(=O)N1CCN(c2ccc(C#N)cn2)CC1)c1cccc2c(=O)[nH]ncc12 (stereo not shown) [Compound 70] | 1000 to 10000 nM
Cc1cn(CCOCCC(=O)N2CCN(c3ncc(C(F)(F)F)cn3)CC2)c2cn[nH]c(=O)c12 [Compound 74, 3-methyl-1-(2-(3-oxo-3-(4-(5-(trifluoromethyl)pyrimidin-2-yl)piperazin-1-yl)propoxy)ethyl)-1,5-dihydro-4H-pyrrolo[2,3-d]pyridazin-4-one] | ≤ 100 nM
CC(COCCC(=O)N1CCN(c2ncc(C(F)(F)F)cn2)CC1)n1ccc2c(=O)[nH]ncc21 (stereo not shown) [Compound 75] | ≤ 100 nM
CC(COCCC(=O)N1CCN(c2ncc(C(F)(F)F)cn2)CC1)n1ccc2c(=O)[nH]ncc21 (stereo not shown) [Compound 76] | 100 to 1000 nM
Cc1cc2c(=O)[nH]ncc2n1CCOCCC(=O)N1CCN(c2ncc(C(F)(F)F)cn2)CC1 [Compound 77] | ≤ 100 nM
N#Cc1ccc(N2CCN(C(=O)CCOCCn3c(C(F)(F)F)cc4c(=O)[nH]ncc43)CC2)nc1 [Compound 78] | 100 to 1000 nM
N#Cc1ccc(N2CCN(C(=O)CCOCCc3cc(Cl)cc4c(=O)[nH]ncc34)CC2)nc1 [Compound 79] | ≤ 100 nM
O=C(CCOCCc1cc(Cl)cc2c(=O)[nH]ncc12)N1CCN(c2ncc(C(F)(F)F)cn2)CC1 [Compound 80, 7-chloro-5-(2-(3-oxo-3-(4-(5-(trifluoromethyl)pyrimidin-2-yl)piperazin-1-yl)propoxy)ethyl)phthalazin-1(2H)-one] | ≤ 100 nM
N#Cc1ccc(N2CCN(C(=O)CCOCCc3cc(F)cc4c(=O)[nH]ncc34)CC2)nc1 [Compound 81] | ≤ 100 nM
O=C(CCOCCc1cc(F)cc2c(=O)[nH]ncc12)N1CCN(c2ncc(C(F)(F)F)cn2)CC1 [Compound 82] | ≤ 100 nM
CC1CN(c2ccc(C#N)cn2)CCN1C(=O)CCOCCc1cccc2c(=O)[nH]ncc12 (stereo not shown) [Compound 85] | ≤ 100 nM
CC1CN(c2ncc(C(F)(F)F)cn2)CCN1C(=O)CCOCCc1cccc2c(=O)[nH]ncc12 (stereo not shown) [Compound 87] | ≤ 100 nM
CC1CN(c2ncc(C(F)(F)F)cn2)CCN1C(=O)CCOCCc1cccc2c(=O)[nH]ncc12 (stereo not shown) [Compound 88] | ≤ 100 nM

Structure (SMILES) | IC50
CC1CN(C(=O)CCOCCc2cccc3c(=O)[nH]ncc23)CCN1c1ncc(C(F)(F)F)cn1 (stereo not shown) [Compound 89] | ≤ 100 nM
CC1CN(C(=O)CCOCCc2cccc3c(=O)[nH]ncc23)CCN1c1ncc(C(F)(F)F)cn1 (stereo not shown) [Compound 90] | ≤ 100 nM
CC1CN(C(=O)CCOCCc2cccc3c(=O)[nH]ncc23)CCN1c1ccc(C#N)cn1 (stereo not shown) [Compound 91] | ≤ 100 nM
N#Cc1ccc(N2CCN(C(=O)CCOCCn3ncc4c(=O)[nH]ncc43)CC2)nc1 [Compound 92] | 100 to 1000 nM
N#Cc1ccc(N2CCN(C(=O)c3cccc(OCc4cccc5c(=O)[nH]ncc45)c3)CC2)nc1 [Compound 93] | 1000 to 10000 nM
O=C(c1cccc(OCc2cccc3c(=O)[nH]ncc23)c1)N1CCN(c2ncc(C(F)(F)F)cn2)CC1 [Compound 94] | 1000 to 10000 nM
O=C(CCOCCc1cccc2c(=O)[nH]ncc12)N1CCN(c2ccc(F)cn2)CC1 [Compound 95] | 100 to 1000 nM
O=C(CCOCCc1cccc2c(=O)[nH]ncc12)N1CCN(c2ccc(Cl)cn2)CC1 [Compound 96] | ≤ 100 nM
O=C(CCOCCc1cccc2c(=O)[nH]ncc12)N1CCN(c2ccc(C(F)F)cn2)CC1 [Compound 97] | ≤ 100 nM
O=C(CCOCCc1cccc2c(=O)[nH]ncc12)N1CCN(c2ccc(C(F)(F)F)cn2)CC1 [Compound 98, 5-(2-(3-oxo-3-(4-(5-(trifluoromethyl)pyridin-2-yl)piperazin-1-yl)propoxy)ethyl)phthalazin-1(2H)-one] | ≤ 100 nM
O=C(CCOCCc1cccc2c(=O)[nH]ncc12)N1CCN(c2ncc(F)cn2)CC1 [Compound 99] | ≤ 100 nM
O=C(CCOCCc1cccc2c(=O)[nH]ncc12)N1CCN(c2ncc(Cl)cn2)CC1 [Compound 100] | ≤ 100 nM
O=C(CCOCCc1cccc2c(=O)[nH]ncc12)N1CCN(c2ncc(C(F)F)cn2)CC1 [Compound 101] | ≤ 100 nM
N#Cc1cnc(N2CCN(C(=O)CCOCCc3cccc4c(=O)[nH]ncc34)CC2)nc1 [Compound 102] | ≤ 100 nM
O=C(CCOCCc1cccc2c(=O)[nH]ncc12)N1CCN(c2ccccn2)CC1 [Compound 103] | 100 to 1000 nM
O=C(CCOCCc1cccc2c(=O)[nH]ncc12)N1CCN(c2ncccn2)CC1 [Compound 104] | 100 to 1000 nM
O=C(CCOCCc1cccc2c(=O)[nH]ncc12)N1CCN(c2cnc(C(F)(F)F)cn2)CC1 [Compound 105] | ≤ 100 nM
O=C(CCOCCc1cccc2c(=O)[nH]ncc12)N1CCN(c2ncc(C(F)(F)F)s2)CC1 [Compound 106] | ≤ 100 nM
O=C(COCCc1cccc2c(=O)[nH]ncc12)NC1CCN(c2ncc(C(F)(F)F)cn2)CC1 [Compound 107] | ≤ 100 nM
CN(C(=O)COCCc1cccc2c(=O)[nH]ncc12)C1CCN(c2ncc(C(F)(F)F)cn2)CC1 [Compound 108] | ≤ 100 nM
CN(C(=O)COCCc1cccc2c(=O)[nH]ncc12)C1CN(c2ncc(C(F)(F)F)cn2)C1 [Compound 109] | 1000 to 10000 nM
O=C(NCCOCc1cccc2c(=O)[nH]ncc12)C1CCN(c2ncc(C(F)(F)F)cn2)CC1 [Compound 110] | 100 to 1000 nM

Structure (SMILES) | IC50
N#Cc1ccc(N2CCN(C(=O)CCOCCc3cc(C#N)cc4c(=O)[nH]ncc34)CC2)nc1 [Compound 111] | 100 to 1000 nM
N#Cc1cc(CCOCCC(=O)N2CCN(c3ncc(C(F)(F)F)cn3)CC2)c2cn[nH]c(=O)c2c1 [Compound 112] | 100 to 1000 nM
CS(=O)(=O)c1ccc(N2CCN(C(=O)CCOCCc3cccc4c(=O)[nH]ncc34)CC2)nc1 [Compound 113] | 100 to 1000 nM
O=C(CCOCCc1cccc2c(=O)[nH]ncc12)N1CCN(c2ccc(OC(F)(F)F)cn2)CC1 [Compound 114] | ≤ 100 nM
O=C(CCOCCc1cccc2c(=O)[nH]ncc12)N1CCC(c2ncc(Cl)cn2)CC1 [Compound 115] | 100 to 1000 nM
N#Cc1ccc(OC2CCN(C(=O)CCOCCc3cccc4c(=O)[nH]ncc34)C2)nc1 (stereo not shown) [Compound 116] | 1000 to 10000 nM
O=C1NCCc2c(NCCOCC(=O)N3CCN(c4ncc(C(F)(F)F)cn4)CC3)cccc21 [Compound 117] | 1000 to 10000 nM
O=C(CCOCCc1cccc2c(=O)[nH]ncc12)N1CCC(c2ccc(Cl)cn2)CC1 [Compound 118] | 100 to 1000 nM
CC(COCCC(=O)N1CCN(c2ncc(C(F)(F)F)cn2)CC1)c1cc(F)cc2c(=O)[nH]ncc12 (stereo not shown) [Compound 119] | 1000 to 10000 nM
CC(COCCC(=O)N1CCN(c2ncc(C(F)(F)F)cn2)CC1)c1cc(F)cc2c(=O)[nH]ncc12 (stereo not shown) [Compound 120] | ≤ 100 nM
O=C1NC(=O)c2c(CCOCCC(=O)N3CCN(c4ncc(C(F)(F)F)cn4)CC3)cccc21 [Compound 121] | 100 to 1000 nM
CC(OCCCC(=O)N1CCN(c2ncc(C(F)(F)F)cn2)CC1)c1cccc2c(=O)[nH]ncc12 (stereo not shown) [Compound 123] | ≤ 100 nM
O=C(CCCOCc1cccc2c(=O)[nH]ncc12)N1CCN(c2ncc(C(F)(F)F)cn2)CC1 [Compound 124] | ≤ 100 nM
O=C(CCOCCn1c(CO)cc2c(=O)[nH]ncc21)N1CCN(c2ncc(C(F)(F)F)cn2)CC1 [Compound 125] | ≤ 100 nM
CC1CCc2c(cn[nH]c2=O)N1CCOCCC(=O)N1CCN(c2ncc(C(F)(F)F)cn2)CC1 (stereo not shown) [Compound 126] | 100 to 1000 nM
Cc1nn(CCOCCC(=O)N2CCN(c3ncc(C(F)(F)F)cn3)CC2)c2cn[nH]c(=O)c12 [Compound 127] | ≤ 100 nM
O=C1NCCn2c(CCOCCC(=O)N3CCN(c4ncc(C(F)(F)F)cn4)CC3)ccc21 [Compound 128] | 100 to 1000 nM
CC(OCCCC(=O)N1CCN(c2ncc(C(F)(F)F)cn2)CC1)c1cc(F)cc2c(=O)[nH]ncc12 (stereo not shown) [Compound 129] | ≤ 100 nM
O=C(CCOCCn1cc(C(F)(F)F)c2c(=O)[nH]ncc21)N1CCN(c2ncc(C(F)(F)F)cn2)CC1 [Compound 131, 1-(2-(3-oxo-3-(4-(5-(trifluoromethyl)pyrimidin-2-yl)piperazin-1-yl)propoxy)ethyl)-3-(trifluoromethyl)-1,5-dihydro-4H-pyrrolo[2,3-d]pyridazin-4-one] | ≤ 100 nM
O=C(CCOCCn1ncc2c(=O)[nH]ncc21)N1CCN(c2ccc(C(F)(F)F)cn2)CC1 [Compound 132] | ≤ 100 nM
